# Results reported in article PMC7770833, “Design, Synthesis, and Biological Evaluation of a Series of Oxazolone Carboxamides as a Novel Class of Acid Ceramidase Inhibitors” (Journal of Medicinal Chemistry, 2020).
# Tests used:
# [1] = molecular target: T1, hAC (Homo sapiens, UniProt Q13510); test: hAC LC/MS-based activity assay in SH-SY5Y cells; format: cell-based; set-up: host or cells: SH-SY5Y human neuroblastoma cells; details: 1, 2.5, 5, 10 μM for 3 h; 10 μM for 1, 3, 6 h
# T1 sequence (Q13510 22-395): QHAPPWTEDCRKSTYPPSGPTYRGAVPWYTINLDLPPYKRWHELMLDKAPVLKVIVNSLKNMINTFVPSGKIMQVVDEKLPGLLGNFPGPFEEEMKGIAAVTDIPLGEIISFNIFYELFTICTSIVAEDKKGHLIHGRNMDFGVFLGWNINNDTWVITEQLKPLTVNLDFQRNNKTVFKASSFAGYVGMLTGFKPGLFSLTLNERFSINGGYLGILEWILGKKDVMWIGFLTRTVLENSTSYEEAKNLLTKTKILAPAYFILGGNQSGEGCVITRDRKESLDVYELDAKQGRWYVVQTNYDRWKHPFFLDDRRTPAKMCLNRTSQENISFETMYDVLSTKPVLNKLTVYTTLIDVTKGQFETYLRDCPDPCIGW
# Method: (§1) SH-SY5Y cells were purchased from Sigma Aldrich (Italy) and cultured in DMEM containing 10% FBS at 37 °C and 5% CO2. Drugs were dissolved in DMSO (10 mM) and diluted in cell culture medium with reduced serum (1%) for cell treatments.
# hAC activity measurement was performed as previously described.[59],[61] Total lysates from cells were diluted in assay buffer (100 mM sodium phosphate, 0.1% Nonidet P-40, 150 mM NaCl, 3 mM DTT, 100 mM sodium citrate, pH 4.5). Reactions were started by the addition of 50 μM N-lauroyl ceramide (Nu-Chek Prep, Elysian, MN) and carried out for 1 h at 37 °C. Reactions were stopped by the addition of a mixture of CHCl3/MeOH (2:1) spike with 11-lauroleic acid (1.0 nmol, NuChek Prep). The organic phases were collected, dried under N2, and analyzed by UPLC/MS (Acquity, Waters) in the negative-ion mode monitoring the reaction product (lauric acid, m/z: 199) using 11-lauroleic acid as the internal standard. Lipids were eluted on an Acquity UPLC BEH C18 column (50 mm length, 2.1 mm ID, 1.7 μm pore size, Waters) column at 0.5 mL/min for 1.5 min with a gradient of CH3CN and H2O, both containing 0.25% AcOH and 5 mM NH4OAc (70–100% CH3CN in 0.5 min, 100% CH3CN for 0.5 min, 70% CH3CN for 0.4 min). The column temperature was 40 °C. […] The [M – H]^− ion was monitored in the selected-ion monitoring mode (m/z values: lauric acid 199, 11-lauroleic acid 197.35). […]
# [2] = In vitro microsomal stability study, human liver microsomes; format: in vitro ADME
# Method: Freshly prepared 10 mM CH3CN stock solution of the test compound was pre-incubated at 37 °C for 15 min with mouse/human liver microsomes added 0.1 M Tris-HCl buffer (pH 7.4). The final concentration was 4.6 μM. After pre-incubation, the cofactors (NADPH, G6P, G6PDH, and MgCl2 pre-dissolved in 0.1 M Tris-HCl) were added to the incubation mixture and the incubation was continued at 37 °C for 1 h. At each time point (0, 5, 15, 30, and 60 min), 30 μL of the incubation mixture was diluted with 200 μL of cold CH3CN spiked with 200 nM of the internal standard, followed by centrifugation at 3300g for 15 min. The supernatant was further diluted with H2O (1:1) for analysis. The concentration of the test compound was quantified by LC/MS–MS on a Waters Acquity UPLC/MS TQD system consisting of TQD MS equipped with an ESI interface. The analyses were run on an Acquity UPLC BEH C18 (50 × 2.1 mm ID, particle size 1.7 μm) with a VanGuard BEH C18 pre-column (5 × 2.1 mm ID, particle size 1.7 μm) at 40 °C. For each compound, the appropriate mobile phase was chosen. ESI was applied in positive mode. The percentage of the test compound remaining at each time point relative to t = 0 was calculated. The t1/2 were determined by a one-phase decay equation using a nonlinear regression of the compound concentration versus time. […]
# [3] = test system: human neuroblastoma SH-SY5Y cells; test: Sphingolipid levels in SH-SY5Y cells (LC/MS); format: cell-based
# Method: as §1
# Lipid extraction and SL measurements were performed as previously described.[59],[61],[75] Lipids were extracted with a CHCl3/MeOH mixture (2:1, 3 mL) spike with internal standards. The organic phase was collected, dried under N2, and dissolved in CHCl3/MeOH (1:3) for LC/MS analyses. Ceramides and sphingosine were analyzed by LC/MS/MS, using a Waters Acquity UPLC coupled to a Waters Xevo triple quadrupole mass spectrometer (TQMS) and interfaced with an ESI ion source. Separation was performed on a Waters Acquity BEH C18 1.7 μm column (2.1 × 50 mm) at 60 °C. A linear gradient of 0.1% HCOOH in CH3CN/i-PrOH (20:80) as solvent B in 0.1% HCOOH in CH3CN/H2O (20:80) as solvent A and was applied at a flow rate of 0.4 mL/min. The detection of SLs was performed in positive ion mode. Capillary voltage was 3.5 kV and cone voltage was 25 V. The source temperature and desolvation temperatures were set at 120 and 600 °C, respectively. Desolvation gas and cone gas (N2) flows were 800 and 20 L/h, respectively. Ceramides were identified by comparison of their LC retention times and MS/MS fragmentation patterns with those of authentic standards (Avanti Polar Lipids). Multiple reaction monitoring (MRM) ion chromatograms were used to quantify dihydroceramide (Cer(d18:0/16:0), Rt = 4.6 min, m/z: 540.5 > 522.5), palmitoyl ceramide (Cer(d18:1/16:0), Rt = 4.5 min, m/z: 520.3 > 264.2) sphingosine (So(d18:1), Rt = 2.6 min, m/z: 300.2 > 282.2), sphingomyelin (SM(d18:1/16:0), Rt = 4.2 min, m/z: 703.2 > 184.1) and hexosylceramide (HexCer (d18:1/16:0), 4.3 min, m/z: 682.2 > 264.2). Detection and analysis were controlled by Waters MassLynx software version 4.1. Calibration curves were prepared for every experiment.
structure (smiles),measurement,setting,value
"CCCCCNC(=O)n1cc(-c2ccc(F)cc2C2CCN(C)CC2)oc1=O [Compound 32b, 5-[4-Fluoro-2-(1-methyl-4-piperidyl)phenyl]-2-oxo-N-pentyl-oxazole-3-carboxamide]",hAC activity in SH-SY5Y cells,[1],time-dependent reduction
same,h-liver microsomes % compound remaining at 1 h,[2]; 1 h,80%
same,half-life at 4.6 μM,"[2]; pH 7.4, read-out: h-liver microsomal stability t1/2",> 1 h
same,Cer (d18:0/16:0) level,"[3]; 10 μM, time course up to 6 h",increased
same,Cer (d18:1/16:0) level,"[3]; 10 μM, time course up to 6 h",increased
same,HexCer (d18:1/16:0) level,"[3]; 10 μM, time course up to 6 h",No major variations
same,SM (d18:1/16:0) level,"[3]; 10 μM, time course up to 6 h",No major variations
same,So levels,"[3]; 10 μM, time course up to 6 h",decreased
same,Cer (d18:0/16:0) level,"[3]; 3 h incubation, 1-10 μM",accumulation
same,Cer (d18:1/16:0) level,"[3]; 3 h incubation, 1-10 μM",accumulation
same,HexCer (d18:1/16:0) level,"[3]; 3 h incubation, 1-10 μM",no major variations
same,SM (d18:1/16:0) level,"[3]; 3 h incubation, 1-10 μM",no major variations
same,So levels,"[3]; 3 h incubation, 1-10 μM",decrease
